Measured values: PMC8895377, “In Vivo Targeting Replication Protein A for Cancer Therapy” (Frontiers in Oncology, 2022)

Legend:
[1] = tested on: H460 cells; assay: Chou-Talalay combination studies with RPAi 329; format: cell-based, human; settings: H460, combination with RPAi 329
Method: To assess synergy, the combination index (CI) was determined as described by Chou-Talalay as we have previously described ([8]). Briefly, H460 cells were treated with RPAi and the indicated agent alone and in combination. […] The data from both the single-agent treatments and the combination treatment were used to calculate the CI and plot this value as a function of the fraction of cells affected (Fa). A CI of >1 indicates antagonism between the two agents, while a CI <1 indicates synergy.
(A) Chou-Talalay analysis of combination with chemotherapeutics. […] (B) Chou-Talalay analysis of combination with DDR-targeted agents as described in panel (A).

[2] = tested on: H460 cells; assay: DNA fiber analysis of replication fork dynamics; format: cell-based, human
Method: Analysis of DNA replication intermediates was performed as previously described with minor modifications ([11], [12]). H460 cells were seeded in 6-well plates at a density of 2 × 10^5 cells. […] After harvesting, the cells were resuspended in PBS at a concentration of 1,000,000 cells/ml, and 2 µl of the cell suspension was mixed with 8 µl of lysis buffer (200 mM Tris-HCl pH 7.5, 50 mM EDTA, 0.5% SDS) on a Superfrost Plus microscope slide (Fisher Scientific). After 6 min of incubation, the slides were tilted at a 45-degree angle to allow cell lysates to slowly run down the slide. After air-drying, the slides were fixed in methanol:acetic acid (3:1) and stored at 4°C. DNA fibers were denatured with 2.5N HCl for 1 h, washed with PBS, and blocked with 5% BSA in PBS-T (PBS + 0.1% Tween-20) for 1 h. […] Excess antibodies were removed by washing with PBS-T 3 times. After air-drying, the slides were mounted onto a coverslip with mounting medium. Fiber tracts were imaged with a Nikon epifluorescence microscope using a 40× oil immersion objective, and 100 fibers for each group were analyzed in ImageJ where the ratios of CldU : IdU were compared using pixel length. Data were analyzed by ANOVA with Bonferroni test for multiple comparisons.
(A) Schematic depiction of experimental design. DNA was pulse-labeled with IdU for 20 min. After IdU removal, replication forks were stalled by the addition of HU or left to replicate with vehicle treatment. HU was removed, and replication was labeled with CldU. Following CldU, cells were treated with the DDRi or vehicle. […] Data presented are combined from three individual experiments (100 fibers analyzed per experiment; 300 fibers total). Red bar indicates the median value of CldU/IdU.

[3] = tested on: H460 cells; assay: Caspase 3/7 apoptosis assay; format: cell-based, human; settings: H460, 24 h
Method: Apoptosis induction was determined by activation of Caspases 3 and 7 using the CellEvent™ Caspase-3/7 Green Detection Reagent (Invitrogen). H460 cells were plated at 5 × 10^3 cells/well in black 96-well plates with clear bottoms (Costar) and incubated for 24 h prior to treatments. Cells were treated with the indicated concentration of RPAi or cisplatin for 24 h. The vehicle (DMSO) concentration was held constant at 1% for RPAi treatments. For caspase 3/7 detection, medium was removed and replaced with phosphate buffered saline (PBS) containing 5% fetal bovine serum (FBS) and 2 µM CellEvent™ Caspase-3/7 Green Detection Reagent. Cells were incubated at 37°C/5% CO2 for 1 h, and fluorescence intensity was measured in a BioTek Synergy H1 plate reader (excitation/emission 485/528). Images were captured with an Evos FL2 Auto microscope (Invitrogen) using a 10× objective.
Figure 3 The 329 induction of apoptotic cell death. (A) Analysis of caspase 3/7 activity in H460 cells following 24 h of treatment with 1% DMSO or the indicated concentrations of 329. Fluorescence images were captured as described in the Materials and Methods. (B) Quantification of caspase 3/7 activity. Fluorescence was measured in 96-well plates using a Biotek Synergy H1 plate reader following 24-h incubation with the indicated drugs and concentrations.

[4] = tested on: lung cancer xenograft models; settings: cited from earlier work
[5] = cited from earlier work
[6] = tested on: H460 NSCLC cells; assay: CCK-8 viability assay; format: cell-based, human; settings: H460, 48 h, compared to 551 predecessor
Method: Cell lines were obtained from ATCC and maintained as monolayer cultures in RPMI 1640 medium (H460) or Dulbecco’s Modified Eagle's Medium (DMEM) (A549) supplemented with 10% fetal bovine serum. H460 and A549 cells were plated at 2.5 × 10^3 cells/well and A2780 and GCT27 cells plated at 5 × 10^3 cells/well in a 96-well plate and incubated for 18–24 h prior to treatments. Cells were treated with the indicated concentration of RPAi for 48 h. The vehicle (DMSO) concentration was held constant at 1%. Cell metabolism/viability was assessed by a mitochondrial metabolism assay (CCK-8) as we have described previously ([10]). The generation of the water-soluble formazan product by cellular dehydrogenases is proportional to the number of living cells. Following incubation with CCK-8 reagent, absorbance was measured at 450 nm with a BioTek Synergy H1 plate reader. Values were compared to those of vehicle-treated controls to determine percent viability, and the results represent the average and SEM of triplicate determinations.

[7] = target: Escherichia coli single strand binding protein (SSB) (Escherichia coli, UniProt P0AGE0); assay: EMSA internal specificity control, SSB–ssDNA complex; settings: internal specificity control in EMSA
Method: (§1) EMSAs were performed as previously described ([9]). Briefly, reactions were conducted in 20 mM HEPES (pH 7.8), 1 mM DTT, 0.001% NP-40, and 50 mM NaCl. RPAis were suspended in 100% dimethlysulfoxide (DMSO), and DMSO concentration in the final reaction mixture was constant at less than 5%. Purified full-length RPA (120 ng) was incubated with the indicated RPAi or vehicle in reaction buffer for 30 min before the addition of the [^32]P-labeled 34-base ssDNA probe. Reactions were incubated for 5 min at room temperature, and products were separated via 6% native polyacrylamide gel electrophoresis. The bound and unbound fractions were quantified by phosphor-imager analysis using ImageQuant software (Molecular Dynamics, CA), and data were fit by non-linear regression using GraphPad Prism.
(§2) Figure 2 Replication protein A inhibitor (RPAi) inhibitory activity. (A) Chemical structure of RPAi’s 329 and 2004. (B) EMSA analysis of RPA–DNA interaction inhibition by 329 and 2004. Lanes 3–6 in each panel contain 6.25, 12.5, 25, and 50 µM of the indicated RPAi, respectively. The * indicates the position of the Escherichia coli SSB–single-stranded DNA (ssDNA) complex that serves as an internal specificity control. (C) Cell viability of H460 NSCLC cells in response to 329 and 2004.

[8] = parameters: method as in PMID 32550990; settings: cited from earlier work
[9] = tested on: A549 adenocarcinoma and H460 large cell carcinoma; parameters: method as in doi:10.1101/2020.11.30.404640; settings: both models, differing dosing regimens, DMSO/Tween; cited from earlier work
[10] = target: T1, RPA–DNA interaction (purified full-length RPA) (Homo sapiens, UniProt P27694); assay: EMSA of RPA–DNA interaction inhibition; format: binding; settings: 6.25, 12.5, 25, 50 µM RPAi
T1 construct: Purified full-length RPA (120 ng) was incubated with the indicated RPAi
Method: as §1, §2

T1 sequence (P27694 whole entry): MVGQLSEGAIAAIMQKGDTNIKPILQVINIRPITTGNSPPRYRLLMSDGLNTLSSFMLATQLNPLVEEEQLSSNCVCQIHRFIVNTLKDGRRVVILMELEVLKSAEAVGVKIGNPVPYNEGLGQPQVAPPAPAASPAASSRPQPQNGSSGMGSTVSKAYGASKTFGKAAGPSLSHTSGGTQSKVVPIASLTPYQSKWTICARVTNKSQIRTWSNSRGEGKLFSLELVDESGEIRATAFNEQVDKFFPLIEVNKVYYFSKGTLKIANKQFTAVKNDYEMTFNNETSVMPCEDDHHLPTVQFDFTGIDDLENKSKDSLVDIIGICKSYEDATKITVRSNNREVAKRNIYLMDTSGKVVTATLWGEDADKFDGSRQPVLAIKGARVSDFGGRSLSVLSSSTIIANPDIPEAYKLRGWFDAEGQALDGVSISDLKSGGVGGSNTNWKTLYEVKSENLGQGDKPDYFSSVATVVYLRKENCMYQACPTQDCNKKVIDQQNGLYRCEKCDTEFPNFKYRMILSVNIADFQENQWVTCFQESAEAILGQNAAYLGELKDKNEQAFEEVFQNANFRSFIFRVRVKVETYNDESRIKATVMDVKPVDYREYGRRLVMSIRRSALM
T1 sequence (P15927 whole entry partner): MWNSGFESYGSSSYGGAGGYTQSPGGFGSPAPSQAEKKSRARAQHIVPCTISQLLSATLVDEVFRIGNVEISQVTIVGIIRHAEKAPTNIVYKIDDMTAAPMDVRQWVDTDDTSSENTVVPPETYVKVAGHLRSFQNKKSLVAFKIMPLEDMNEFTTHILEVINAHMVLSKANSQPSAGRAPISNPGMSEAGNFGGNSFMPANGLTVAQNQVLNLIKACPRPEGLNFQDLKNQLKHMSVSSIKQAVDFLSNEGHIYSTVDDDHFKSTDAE
T1 sequence (P35244 whole entry partner): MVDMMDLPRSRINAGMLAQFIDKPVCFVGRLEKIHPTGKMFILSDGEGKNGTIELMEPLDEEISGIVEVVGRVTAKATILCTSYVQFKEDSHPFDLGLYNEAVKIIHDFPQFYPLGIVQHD
Chain of Escherichia coli single strand binding protein (SSB) (P0AGE0 2-178): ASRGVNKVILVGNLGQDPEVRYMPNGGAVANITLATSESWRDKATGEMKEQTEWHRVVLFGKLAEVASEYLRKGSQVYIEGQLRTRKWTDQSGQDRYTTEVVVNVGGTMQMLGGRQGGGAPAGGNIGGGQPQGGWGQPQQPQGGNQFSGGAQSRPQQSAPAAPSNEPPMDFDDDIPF

With Cn1ncnc1[C@H]1c2n[nH]c(=O)c3cc(F)cc(c23)N[C@@H]1c1ccc(F)cc1 [BMN637] the “synergy with RPAi 329 (Chou-Talalay)” value [1] was “modest synergy”.
In the case of CNCc1ccc(-c2cc(-c3nc(-c4ccc(S(=O)(=O)C(C)C)cc4)cnc3N)on2)cc1 [VE-822], the “CldU/IdU signal after HU” value ([2]; H460, HU 2.5 mM then 329 50 µM or VE-822 2 µM) was “significant decrease in CldU/IdU signal” and the “CldU/IdU, inhibitor alone” value ([2]; H460, without HU, 329 50 µM, VE-822 2 µM, 2 h) was “minimal effects”.
With O=C1NC(=O)c2c1c(-c1ccccc1Cl)cc1[nH]c3ccc(O)cc3c21 [Wee1 inhibitor] the “synergy with RPAi 329 (Chou-Talalay)” value [1] was “antagonistic or additive”.
In the case of CCOc1ccc2cc(C3CC(c4ccc(I)cc4)=NN3C(=O)CCCC(=O)O)c(Cl)nc2c1 (centres unmarked) [compound 551], the “activation of caspases 3 and 7” value [3] is listed as “inability to detect caspase activity”, the “tumor growth delay, combination with carboplatin” value ([4]; NSCLC xenograft models, reduced doses of carboplatin and 551, versus each agent alone) is listed as “greater than additive effect on tumor growth delay” and the in vivo activity [4] is listed as “modest in vivo activity”. The “caspase activation or annexin V/PI positivity” value [5] was “not accompanied by caspase activation or annexin V/PI positivity”.
For CCOc1ccc2cc(C3CC(c4ccc(Br)cc4)=NN3C(=O)CCCC(=O)NCCCN3CCOCC3)c(Cl)nc2c1 (centres unmarked) [compound 2004], the “single-agent cellular anticancer activity (CCK-8)” value [6] is listed as “potent single-agent activity”, the “interaction of E. coli SSB with ssDNA” value [7] is listed as “not impacted” and the “solubility, cellular uptake, and physicochemical properties” value [8] is listed as “excellent”. For the same molecule, the “single-agent anticancer activity in vivo” value [9] was “only modest single-agent anticancer activity” and the “RPA inhibitory activity (RPA–DNA interaction, EMSA)” value [10] was “potent RPA inhibitory activity”.
In the case of N=C1NC(=O)/C(=C/c2ccc(O)cc2)S1 [mirin], the “reversal of the CldU/IdU decrease” value ([2]; H460, HU then ATRi or RPAi) was “reversible”.
